Measurements reported in patent publication US8852953B2, “Immunodetection and quantification of pyrazolopyrimidine sedatives” (Randox Laboratories Ltd., priority 2009, dated 2014).
≈ marks a conversion by molar mass, not a printed value.

Legend:
[1] = test system: antiserum raised to Immunogen A (Hapten-A-BTG); experiment: Competitive ELISA with antiserum raised to Immunogen A and Conjugate A (Hapten-A-HRP) as detection reagent; assay type: binding, sheep
Procedure: Aqueous solutions of the immunogens prepared in Examples 6 and 12 were formulated with Freund's Complete Adjuvant (FCA) to form emulsions of Immunogen A and Immunogen [[B]]C in 50% (v/v) FCA. Individual sheep were immunised with the emulsions of Immunogen A and Immunogen C (primary immunisations), 0.25 ml being subcutaneously injected in the flank of each animal. Subsequent boosts of emulsified immunogens in 50% (v/v) Freund's Incomplete Adjuvant (FIA) were at monthly intervals for 1 year. Blood sampling took place 7-14 days after each boost. Each sample was processed to produce antisera which were further purified by caprylic acid and ammonium sulfate precipitated to yield an immunoglobulin G (IgG) fraction. The IgG fraction was evaluated by competitive ELISA microtitre plate assay, as described in Example 15.
The wells of an enhanced binding 96 well polystyrene microtitre plate were coated with the IgG fraction of the antiserum raised to Immunogen A Hapten A-BTG diluted in 10 mM Tris, pH8.5 (125 μl/well). The appropriate antibody coating dilution was determined using standard ELISA chequerboard techniques. The plate was incubated for 2 hours at 37° C., washed 4 times with Tris buffered saline containing Tween 20 (TBST) and tapped dry. […] 75 μl of Conjugate A (Hapten A-HRP), diluted in Tris buffer containing EDTA, D-mannitol, sucrose, thimerosal and BSA, was added to each of the wells. The appropriate dilution of conjugate was also determined using standard ELISA chequerboard techniques. The plate was incubated at 25° C. for 1 hour. The excess unbound conjugate was removed by washing 6 times over a 10 minute period with TBST. 125 μl of tetramethylbenzedine (TMB) substrate solution was added to each well of the plate and incubated for 20 minutes in the dark at room temperature. The reaction was stopped by the addition of 125 μl of 0.2M H2SO4 to each well. The absorbance was then measured at 450 nm using a microtitre plate reader.

[2] = test system: antiserum raised to Immunogen C (Hapten-C-BTG); experiment: Competitive ELISA with antiserum raised to Immunogen C and Conjugate C (Hapten-C-HRP) as detection reagent; assay type: binding, sheep; details: for % CR (percentage cross-reactivity based on specificity to Zaleplon) / IC50 (standard concentration which produces 50% B/B0): antiserum to Immunogen C, Conjugate C
[3] = antiserum to Immunogen A, Conjugate A
[4] = standard concentration 0.025 ng/ml
[5] = standard concentration 0.050 ng/ml
[6] = standard concentration 0.100 ng/ml
[7] = standard concentration 0.200 ng/ml
[8] = standard concentration 0.400 ng/ml
[9] = standard concentration 0.800 ng/ml
[10] = standard concentration 1.600 ng/ml
[11] = standard concentration 0.156 ng/ml
[12] = standard concentration 0.313 ng/ml
[13] = standard concentration 0.625 ng/ml
[14] = standard concentration 1.250 ng/ml
[15] = standard concentration 2.500 ng/ml
[16] = standard concentration 5.000 ng/ml
[17] = standard concentration 10.000 ng/ml

| SMILES | % CR (percentage cross-reactivity based on specificity to Zaleplon) [1, 3] | % CR (percentage cross-reactivity based on specificity to Zaleplon) [2] | IC50 (standard concentration which produces 50% B/B0) [2] | % B/B0 [2, 11] | A450 [2, 11] | % B/B0 [2, 12] | A450 [2, 12] | % B/B0 [2, 13] | A450 [2, 13] | % B/B0 [2, 14] | A450 [2, 14] | % B/B0 [2, 15] | A450 [2, 15] | % B/B0 [2, 16] | A450 [2, 16] | % B/B0 [2, 17] | A450 [2, 17] | also measured |
| --- | --- | --- | --- | --- | --- | --- | --- | --- | --- | --- | --- | --- | --- | --- | --- | --- | --- | --- |
| CCN(C(C)=O)c1cccc(-c2ccnc3c(C#N)cnn23)c1 [Zaleplon, zaleplon] | 100% | 100% | 0.432 ng/mL (≈ 1.41 nM) | 65% | 1.487 | 54% | 1.236 | 45% | 1.021 | 36% | 0.825 | 27% | 0.610 | 20% | 0.457 | 15% | 0.337 | IC50 of zaleplon-specific antibody ([1]; as stated in the description): 63 pg/mL; % B/B0 [1, 4]: 72%; A450 [1, 4]: 1.542; % B/B0 [1, 5]: 55%; A450 [1, 5]: 1.180; % B/B0 [1, 6]: 40%; A450 [1, 6]: 0.860; % B/B0 [1, 7]: 28%; A450 [1, 7]: 0.602; % B/B0 [1, 8]: 19%; A450 [1, 8]: 0.406; % B/B0 [1, 9]: 13%; A450 [1, 9]: 0.286; % B/B0 [1, 10]: 10%; A450 [1, 10]: 0.211 |
| CC(=O)N(C)c1cccc(-c2ccnc3c(C(=O)c4cccs4)cnn23)c1 [Indiplon, indiplon] | <0.63% | 22% | 1.967 ng/mL (≈ 5.23 nM) | 84% | 1.831 | 77% | 1.664 | 67% | 1.455 | 57% | 1.234 | 46% | 1.006 | 36% | 0.778 | 27% | 0.579 | IC50 (standard concentration which produces 50% B/B0) [1, 3]: >10 ng/mL; % B/B0 [1, 11]: 96%; A450 [1, 11]: 2.063; % B/B0 [1, 12]: 94%; A450 [1, 12]: 2.019; % B/B0 [1, 13]: 93%; A450 [1, 13]: 1.982; % B/B0 [1, 14]: 99%; A450 [1, 14]: 2.112; % B/B0 [1, 15]: 88%; A450 [1, 15]: 1.877; % B/B0 [1, 16]: 91%; A450 [1, 16]: 1.940; % B/B0 [1, 17]: 90%; A450 [1, 17]: 1.931 |
